One data set has as its target human GLP1R (hGLP1R) (Homo sapiens, UniProt P43220). In words: Human GLP1R cAMP agonist assay (GloSensor). The settings on record: HEK293-SNAP-hGLP1R-GloSensor cells; for Emax: read-out: Emax mean; for EC50: intracellular cAMP, mean n=3 where SEM is given. Format: cell-based. The procedure:
Compounds 1 to 31 were tested in the following cellular assays that measure the intracellular cAMP concentration, beta-arrestin recruitment and receptor internalization. The cAMP is generated by the activation of GLP1R. The cAMP data obtained is shown in Table 1 (where S.E.M. is included, mean n=3 independent experiments+/−S.E.M). Beta-arrestin is recruited upon activation of GLP1R and the data obtained are shown in Table 2 (mean n=2 independent experiments, +/−S.D). The extent to which the GLP1R is internalized into the cell and away from the plasma membrane following activation is also shown in Table 2 (mean n=2 independent experiments, +/−S.D). EC50 for each assay is defined as the concentration of the compound that leads to half of the maximum response (after baseline correction). Emax is defined as the maximum response observed for the test compound, normalized to the maximum response observed for the endogenous ligand (GLP1(7-36)) to GLP1R.
Human GLP1R cAMP Agonist Assay
The agonist activity of compounds was determined using the GloSensor™ cAMP Assay (Promega Corp.), which measures changes in the intracellular concentration of cAMP after ligand activation of GPCRs. The assay uses a biosensor encoded by pGloSensor™-22F cAMP plasmid (Promega, cat #E2301) with cAMP binding domains fused to a mutant form of Photinus pyralis luciferase. Binding to cAMP causes conformational changes that promote large increases in light output, which can be measured by a luminescence detector. HEK293-SNAP-hGLP1R-GloSensor cells stably overexpressing the human GLP1 receptor (hGLP1R) and pGloSensor™-22F were seeded in white 384-well poly-D-Lysine coated plates (Greiner Bio One, cat #781945) in CO2-independent media (Gibco cat #18045-088 with 1.0% FBS, 2 mM L-glutamine, penicillin and streptomycin) and incubated overnight at 37° C., 5% CO2 with humidity. The assay was started the following morning by adding an equal volume of CO2-independent media containing 4% v/v dilution of the GloSensor substrate (Promega, cat #E1291) to all wells. The cell plate was incubated at rt for 2 h in the dark. The Biomek 7 (Beckman Coulter) instrument was used for the liquid handling steps. To generate duplicate dose response curves, 3-fold serially diluted compounds were added in to the cell assay plate to a final volume of 60 μL with final concentrations ranging from 30 μM through 0.06 μM in CO2-independent media containing 0.1% BSA, 0.5 mM IBMX and 0.4% DMSO. In the same plate and assay buffer as the tested compounds, were EC100 control wells containing GLP1 (7-36) peptide (Bachem, cat #H-6795) at a final concentration of 2 nM and also EC0 control wells containing no peptide. This plate was incubated at rt in the dark for 12 min after adding the compounds to the cells. Luminescence was then measured with an Envision 2104 Multilabel reader with “TRF Light Unit, 337 nm” (PerkinElmer) using the Ultra-Sensitive protocol setting “384-well US luminescence detector” with the 384-well luminescence aperture, 0.1 seconds per well. cAMP activity was calculated as percent of the GLP1 (7-36) EC100 control wells: [(sample signal−mean EC0 signal)/(mean EC100 of GLP1 (7-36) signal−mean EC0 signal)}*100. Curve fitting for EC50 determinations was performed in the Helios module of the software package DAVID. The 4-parameter logistic model, Hill slope was used: y=Ainf+(A0−Ainf)/(1+(x/AC50)^Hill Slope) where y is the functional response; x is the compound concentration; A0 is the minimum value (at 0 dose); Ainf is the maximum value (at infinite dose); AC50 corresponds to the point of inflection (i.e. the point on the sigmoid shaped curve halfway between A0 and Ainf). The EC50 value was represented by the AC50 value calculated from Helios in μM. Emax is the maximal activity detected within the concentration range, derived from the fitted curve. […]

Data set [1] is described as follows: Pharmacokinetics in C57BL/6 mice (i.v. and oral). The settings on record: for AUC(0-inf) / Vd / clearance / half-life / Cmax / Tmax: male, C57BL/6, mouse; for BAV: male C57BL/6 mice, 3 mg/kg oral dose vs 1 mg/kg i.v. As for the experimental part:
Blood concentration versus time profiles were obtained from 2 groups of 3 male mice. The compound was administered intravenously (i.v.) by bolus injection (5 mL/kg) at a dose of 1 mg/kg in N-methyl-2-pyrrolidone (10%) and 4% bovine serum albumins (BSA) in phosphate-buffered saline (PBS) (90%) or orally administered at a dose of 3 mg/kg (10 mL/kg) as a homogenous suspension of Water (99.4%), Tween 80 (0.1%) and methylcellulose (0.5%). Following compound administration, blood (10 μL/time point) were collected by puncture of the tail vein into ethylenediaminetetraacetic (EDTA)-coated tubes, at 0.083 (i.v. only), 0.25, 0.5, 1, 3, 7, & 24 hours post dose.
Bioanalysis: An aliquot of 10 μL of blood sample and matrix calibration standards were added to a 96-well plate. The samples were extracted using a protein precipitation procedure with addition of 80 μL acetonitrile containing internal standard. The samples were vortexed and centrifuged at 3000 rpm for 5 minutes. A 70 μL aliquot of supernatant was transferred to a clean 96-well plate and a 70 μL of water was added to each well and vortexed. Samples were analyzed and quantified by LC-MS/MS using the conditions outlined below.
• Mass Spectrometer: AP16500+ • Liquid Chromatograph: Agilent 1290 for Compound 3; Shimadzu LC30 AD for Compound 5 • Autosampler (ALS): Agilent 1290 for Compound 3; Shimadzu SIL30AC for Compound 5
• LC Column Acquity BEH C18, 50×2.1 mm, 1.7 μm • Solvent A: • 5:95:0.1 (v:v:v) Acetonitrile:Water:Formic Acid for Compound 3 • 100:0.1 (v:v) Water:Formic acid for Compound 5 • Solvent B: • 50:50:0.1 (v:v:v) Acetonitrile:Methanol:Formic Acid for Compound 3 • 100:0.1 (v:v) Acetonitrile:Formic acid for Compound 5 • Injection Volume [μL]: 1 for Compound 5; 20 for Compound 3 • Column Oven Temp. [° C.]: 50 Compound 3; 40 for Compound 5 • ALS Temp. [° C.]: 5
• Ion Source: TIS • Polarity: Positive • Temperature: 550 • Gas 1: 55 • Gas 2: 55 • Curtain Gas: 20 • Ion Spray Voltage [V]: 5500 for Compound 5; 4500 for Compound 3 • CAD Gas: 9

Where [2] appears, read: cAMP, normalized to GLP1(7-36) maximum response.

Chain of human GLP1R (hGLP1R) (P43220 24-463): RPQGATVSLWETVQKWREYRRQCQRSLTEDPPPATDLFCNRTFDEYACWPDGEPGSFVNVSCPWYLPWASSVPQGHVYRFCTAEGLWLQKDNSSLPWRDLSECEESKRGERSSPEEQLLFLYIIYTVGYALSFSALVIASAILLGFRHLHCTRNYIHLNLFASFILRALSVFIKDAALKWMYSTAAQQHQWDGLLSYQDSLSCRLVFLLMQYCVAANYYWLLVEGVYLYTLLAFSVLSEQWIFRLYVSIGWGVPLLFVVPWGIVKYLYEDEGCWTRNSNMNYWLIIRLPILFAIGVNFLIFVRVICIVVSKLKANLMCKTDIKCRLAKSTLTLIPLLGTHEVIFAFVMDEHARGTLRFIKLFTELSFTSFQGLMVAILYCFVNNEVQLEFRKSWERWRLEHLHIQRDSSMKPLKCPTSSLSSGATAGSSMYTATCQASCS

For the compound `Cc1c(C(=O)O)nc(CN2CCC(c3cccc4c3O[C@@](C)(c3ccc(Cl)cc3F)O4)CC2)n1C[C@@H]1CCO1` [Compound C-4, 2-((4-((S)-2-(4-chloro-2-fluorophenyl)-2-methylbenzo[d][1,3]dioxol-4-yl)piperidin-1-yl)methyl)-5-methyl-1-(((S)-oxetan-2-yl)methyl)-1H-imidazole-4-carboxylic acid], the Emax at human GLP1R (hGLP1R) (setting [2]) is 109%. At human GLP1R (hGLP1R), the EC50 is 8.28 nM.
`Cc1nc(CN2CCC(c3cccc4c3O[C@@](C)(c3ccc(Cl)cc3F)O4)CC2)n(C[C@@H]2CCO2)c1C1CC1C(=O)O` (some centres unmarked) [Compound C-9]: the Emax on human GLP1R (hGLP1R) (setting [2]) was 109%. In addition, a half-maximal response at human GLP1R (hGLP1R) (EC50) required 0.418 nM.
On the same counts, the results for `Cc1nc(CN2CCC(c3cccc4c3O[C@@](C)(c3ccc(Cl)cc3F)O4)CC2)n(C[C@@H]2CCO2)c1C(O)CC(=O)O` (mixture of isomers) [Compound C-28, 3-(2-((4-((S)-2-(4-chloro-2-fluorophenyl)-2-methylbenzo[d][1,3]dioxol-4-yl)piperidin-1-yl)methyl)-4-methyl-1-(((S)-oxetan-2-yl)methyl)-1H-imidazol-5-yl)-3-hydroxypropanoic acid] are 110% and 1.08 nM.
On the same counts, the results for `C[C@]1(c2ccc(Cl)cc2F)Oc2cccc(C3CCN(Cc4nc(-c5nnn[nH]5)c(C(F)(F)F)n4C[C@@H]4CCO4)CC3)c2O1` [Compound C-25, 4-((S)-2-(4-chloro-2-fluorophenyl)-2-methylbenzo[d][1,3]dioxol-4-yl)-1-((1-(((S)-oxetan-2-yl)methyl)-4-(1H-tetrazol-5-yl)-5-(trifluoromethyl)-1H-imidazol-2-yl)methyl)piperidine] are 110% and 8.63 nM.
For the compound `CCc1nc(CN2CCC(c3cccc4c3O[C@@](C)(c3ccc(Cl)cc3F)O4)CC2)n(C[C@@H]2CCO2)c1C(=O)O` [Compound C-27, 2-((4-((S)-2-(4-chloro-2-fluorophenyl)-2-methylbenzo[d][1,3]dioxol-4-yl)piperidin-1-yl)methyl)-4-ethyl-1-(((S)-oxetan-2-yl)methyl)-1H-imidazole-5-carboxylic acid], the Emax on human GLP1R (hGLP1R) (setting [2]) was determined as 113%. The same compound returned an EC50 at human GLP1R (hGLP1R) of 2.96 nM.
On to `C[C@]1(c2ccc(Cl)cc2F)Oc2cccc(C3CCN(Cc4ncc(/C=C/C(=O)O)n4C[C@@H]4CCO4)CC3)c2O1` [Compound 1], for which, in data set [1] (whole blood, iv, 1 mg/kg), the AUC(0-inf) was found to be 0.509 ± 0.389 µM·h, the Vd was determined as 4.83 ± 1.79 L/kg, the clearance was 82.3 ± 51.7 mL/min/kg and the half-life was 63.6 ± 8.46 min. In data set [1] (whole blood, po, 3 mg/kg), the AUC(0-inf) came out at 0.538 ± 0.136 µM·h, the Cmax is 240 ± 75.4 nM, the Tmax came to 0.75 ± 0.434 h and the half-life was 73.2 ± 18.3 min.
As to `CC(Cc1cnc(CN2CCC(c3cccc4c3O[C@@](C)(c3ccc(Cl)cc3F)O4)CC2)n1C[C@@H]1CCO1)C(=O)O` (single isomer, unassigned) [Compound C-17a], the Emax at human GLP1R (hGLP1R) (setting [2]) was found to be 104%. The same compound had an EC50 at human GLP1R (hGLP1R) of 1.2 nM.
On the same counts, the results for `Cc1nc(CN2CCC(c3cccc4c3O[C@@](C)(c3ccc(Cl)cc3F)O4)CC2)n(C[C@@H]2CCO2)c1C12CC(C(=O)O)(C1)C2` [Compound C-23a, 3-(2-((4-((S)-2-(4-chloro-2-fluorophenyl)-2-methylbenzo[d][1,3]dioxol-4-yl)piperidin-1-yl)methyl)-4-methyl-1-(((S)-oxetan-2-yl)methyl)-1H-imidazol-5-yl)bicyclo[1.1.1]pentane-1-carboxylic acid] are 107% and 1.2 nM.
In data set [1], `C[C@]1(c2ccc(Cl)cc2F)Oc2cccc(C3CCN(Cc4nc(C(F)(F)F)c(/C=C/C(=O)O)n4C[C@@H]4CCO4)CC3)c2O1` [Compound 8] returned a BAV of 60.9 ± 5.26%. Further, in data set [1] (in vivo, iv, 1 mg/kg), the area under the curve AUC(0-inf) stood at 3.75 ± 0.149 µM·h, the Vd was determined as 1.65 ± 0.025 L/kg, the clearance turned out to be 7 ± 0.283 mL/min/kg and the half-life was 181 ± 10.1 min. In data set [1] (in vivo, po, 3 mg/kg), the area under the curve AUC(0-inf) was found to be 6.86 ± 0.591 µM·h, the highest level (Cmax) was 768 ± 112 nM, the Tmax came to 1 h and the half-life is 162 ± 12.1 min.
With `C[C@]1(c2ccc(Cl)cc2F)Oc2cccc(C3CCN(Cc4nc5ccc(C(=O)O)cc5n4C[C@@H]4CCO4)CC3)c2O1` [compound 1, 2-((4-((S)-2-(4-chloro-2-fluorophenyl)-2-methylbenzo[d][1,3]dioxol-4-yl)piperidin-1-yl)methyl)-1-(((S)-oxetan-2-yl)methyl)-1H-benzo[d]imidazole-6-carboxylic acid, reference compound], the BAV in data set [1] is recorded as 50.7%. In data set [1] (in vivo, iv, 1 mg/kg), this compound showed an AUC(0-inf) of 1.19 ± 0.205 µM·h, a Vd of 2.13 ± 0.434 L/kg, a clearance of 24.1 ± 4.52 mL/min/kg and a half-life of 75 ± 1.2 min. Also, in data set [1] (in vivo, po, 3 mg/kg), the AUC(0-inf) worked out at 1.98 µM·h, the Cmax is 430 ± 53.4 nM, the Tmax amounted to 1 h and the half-life is 191 min.
For `C[C@]1(c2ccc(Cl)cc2F)Oc2cccc(C3CCN(Cc4nc(-c5ccc(F)cc5)c(C#CC(=O)O)n4C[C@@H]4CCO4)CC3)c2O1` [Compound C-29, 3-(2-((4-((S)-2-(4-chloro-2-fluorophenyl)-2-methylbenzo[d][1,3]dioxol-4-yl)piperidin-1-yl)methyl)-4-(4-fluorophenyl)-1-(((S)-oxetan-2-yl)methyl)-1H-imidazol-5-yl)propiolic acid], on human GLP1R (hGLP1R) (setting [2]), the Emax was 104%. This compound also came in with an EC50 at human GLP1R (hGLP1R) of 0.0473 nM.
Turning to `CC(Cc1cnc(CN2CCC(c3cccc4c3O[C@@](C)(c3ccc(Cl)cc3F)O4)CC2)n1C[C@@H]1CCO1)C(=O)O` (single isomer, unassigned) [Compound C-17b], the Emax mean at human GLP1R (hGLP1R) (setting [2]) worked out at 106%. Moreover, on human GLP1R (hGLP1R), the EC50 came out at 1.2 nM.

Broadly, the Emax is the size of the effect at its maximum, as opposed to the concentration needed. As a reminder, the EC50 is the midpoint of the concentration-response curve. A high value points to weaker potency. For orientation: AUC(0-inf) means total exposure, with the tail of the curve extrapolated. High values mean more exposure, low ones less exposure. One may read the half-life as the time needed for the level to fall by half in the phase considered. A higher half-life goes with slow loss. What is called Cmax is the highest concentration seen after dosing. As usually defined, the Tmax is the time from dosing to the highest level.

These data come from patent US20240182456A1, “2-((4-((S)-2-(4-CHLORO-2-FLUOROPHENYL)-2-METHYLBENZO[D][1,3]DIOXOL-4-YL)PIPERIDIN-1-YL)METHYL)-1-(((S)-OXETAN-2-YL)METHYL)-1H-IMIDAZOLE DERIVATIVES AS ACTIVATORS OF THE GLP1 RECEPTOR FOR THE TREATMENT OF OBESITY” (Novartis AG, priority 2021, published 2024).
